Test results: patent publication US12480137B2, “Plants having increased tolerance to herbicides” (BASF SE, priority 2014, dated 2025)

Legend:
Type in all cases: in vivo, Arabidopsis thaliana
[1] = tested on: Cesa3_S983F, fpx1-3 mutant line; test: Greenhouse phytotox, pre-emergent treatment
How it was run: (§1)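 Greenhouse tolerance test on M2/M3 Arabidopsis; CBI herbicides, e.g. N4-aryl-1,3,5-triazine-2,4-diamines (6-cyclopentyl, 6-(1-fluoro-1-methyl-ethyl) or 6-(2,6-difluorophenyl) variants).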

[2] = tested on: Cesa1_G1013R, fpx2-1 mutant line; test: Greenhouse phytotox, pre-emergent treatment
How it was run: (§2)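 Tolerance to cellulose biosynthesis inhibitors is assessed on M2 or M3 generation Arabidopsis grown in a greenhouse. Example inhibitors are fluorinated N4-aryl triazine-2,4-diamines, including N4-(4-bromo-2,3,5,6-tetrafluoro-phenyl)-6-(1-fluoro-1-methyl-ethyl)-1,3,5-triazine-2,4-diamine.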

[3] = tested on: Cesa1_G1009D, fpx2-3 mutant line; test: Greenhouse phytotox, pre-emergent treatment
How it was run: as §2

[4] = tested on: Cesa3_S1037F, fpx1-2 mutant line; test: Greenhouse phytotox, pre-emergent treatment
How it was run: as §1

[5] = tested on: Cesa3_S1040L, fpx1-1 mutant line; test: Greenhouse phytotox, pre-emergent treatment
How it was run: as §1

[6] = tested on: A. thaliana WT L. erecta; test: Greenhouse phytotox, pre-emergent treatment
How it was run: as §1

[7] = tested on: Cesa1_P1010L, fpx2-2 mutant line; test: Greenhouse phytotox, pre-emergent treatment
How it was run: as §2

[8] = tested on: transgenic Arabidopsis plants, construct AtCESA1 wt; test: Growth inhibition of transgenic Arabidopsis in 48-well plates, tolerance factor from IC50; conditions: SEQ ID NO 1, growth inhibition seven to ten days after seeding
From the text: (§3) For transformation of Arabidopsis thaliana, wildtype or mutated cellulose synthase sequences based on one of the following sequences SEQ ID NO: 72, 73, 74, 75, 76, or 77, are cloned with standard cloning techniques as described in Sambrook et al. (Molecular cloning (2001) Cold Spring Harbor Laboratory Press) in a binary vector containing resistance marker gene cassette (AHAS) and mutated cellulose synthase sequence (marked as GOI) in between ubiquitin promoter (PcUbi) and nopaline synthase terminator (NOS) sequence. Binary plasmids are introduced to Agrobacterium tumefaciens for plant transformation. Arabidopsis thaliana are transformed with wildtype or mutated cellulose synthase sequences by floral dip method as decribed by McElver and Singh (WO 2008/124495). Transgenic Arabidopsis plants are subjected to TaqMan analysis for analysis of the number of integration loci.
(§4) Transgenic Arabidopsis thaliana plants are assayed for improved tolerance to azine herbicides like e. g. 6-cyclopentyl-N4-(2,3,4,5,6-pentafluorophenyl)-1,3,5-triazine-2,4-diamine in 48-well plates. Therefore, T2 seeds are surface sterilized by stirring for 5 min in ethanol+water (70+30 by volume), rinsing one time with ethanol+water (70+30 by volume) and two times with sterile, deionized water. The seeds are resuspended in 0.1% agar dissolved in water (w/v) Four to five seeds per well are plated on solid nutrient medium consisting of half-strength murashige skoog nutrient solution, pH 5.8 (Murashige and Skoog (1962) Physiologia Plantarum 15: 473-497). Compounds are dissolved in dimethylsulfoxid (DMSO) and added to the medium prior solidification (final DMSO concentration 0.1%). Multi well plates are incubated in a growth chamber at 22° C., 75% relative humidity and 110 μmol Phot*m^−2*s^−1 with 14:10 h light:dark photoperiod. Growth inhibition is evaluated seven to ten days after seeding in comparison to wild type plants. Tolerance factors are calculated based on IC50 values of growth inhibition of transformed versus non-transformed Arabidopsis plants.

[9] = tested on: transgenic Arabidopsis plants, construct AtCESA3_S1040L; test: as above; conditions: SEQ ID NO 3, substitution S1040L, growth inhibition seven to ten days after seeding
From the text: as §3, §4

[10] = tested on: transgenic Arabidopsis plants, construct AtCESA3_S1037F; test: as above; conditions: SEQ ID NO 3, substitution S1037F, growth inhibition seven to ten days after seeding
From the text: as §3, §4

[11] = tested on: transgenic Arabidopsis plants, construct AtCESA3_wt; test: as above; conditions: SEQ ID NO 3, growth inhibition seven to ten days after seeding
From the text: as §3, §4

[12] = tested on: transgenic Arabidopsis plants, construct AtCESA1_G1013R; test: as above; conditions: SEQ ID NO 1, substitution G1013R, growth inhibition seven to ten days after seeding
From the text: as §3, §4

## Nc1nc(Nc2c(F)c(F)c(F)c(F)c2F)nc(C2CCCC2)n1 [6-cyclopentyl-N4-(2,3,4,5,6-pentafluorophenyl)-1,3,5-triazine-2,4-diamine]
[1]; 0.25 g ai/ha
  Phytotox value on a scale from 0-100 (100 is 100% damage): 0
[1]; 0.98 g ai/ha
  Phytotox value on a scale from 0-100 (100 is 100% damage): 5
[1]; 3.91 g ai/ha
  Phytotox value on a scale from 0-100 (100 is 100% damage): 20
[1]; 15.63 g ai/ha
  Phytotox value on a scale from 0-100 (100 is 100% damage): 40
[2]; 0.25 g ai/ha
  Phytotox value on a scale from 0-100 (100 is 100% damage): 5
[2]; 0.98 g ai/ha
  Phytotox value on a scale from 0-100 (100 is 100% damage): 15
[2]; 3.91 g ai/ha
  Phytotox value on a scale from 0-100 (100 is 100% damage): 25
[2]; 15.63 g ai/ha
  Phytotox value on a scale from 0-100 (100 is 100% damage): 15
[3]; 0.25 g ai/ha
  Phytotox value on a scale from 0-100 (100 is 100% damage): 5
[3]; 0.98 g ai/ha
  Phytotox value on a scale from 0-100 (100 is 100% damage): 25
[3]; 3.91 g ai/ha
  Phytotox value on a scale from 0-100 (100 is 100% damage): 58
[3]; 15.63 g ai/ha
  Phytotox value on a scale from 0-100 (100 is 100% damage): 88
[4]; 0.25 g ai/ha
  Phytotox value on a scale from 0-100 (100 is 100% damage): 0
[4]; 0.98 g ai/ha
  Phytotox value on a scale from 0-100 (100 is 100% damage): 23
[4]; 3.91 g ai/ha
  Phytotox value on a scale from 0-100 (100 is 100% damage): 15
[4]; 15.63 g ai/ha
  Phytotox value on a scale from 0-100 (100 is 100% damage): 5
[5]; 0.25 g ai/ha
  Phytotox value on a scale from 0-100 (100 is 100% damage): 5
[5]; 0.98 g ai/ha
  Phytotox value on a scale from 0-100 (100 is 100% damage): 20
[5]; 3.91 g ai/ha
  Phytotox value on a scale from 0-100 (100 is 100% damage): 25
[5]; 15.63 g ai/ha
  Phytotox value on a scale from 0-100 (100 is 100% damage): 40
[6]; 0.25 g ai/ha
  Phytotox value on a scale from 0-100 (100 is 100% damage): 38
[6]; 0.98 g ai/ha
  Phytotox value on a scale from 0-100 (100 is 100% damage): 80
[6]; 3.91 g ai/ha
  Phytotox value on a scale from 0-100 (100 is 100% damage): 99
[6]; 15.63 g ai/ha
  Phytotox value on a scale from 0-100 (100 is 100% damage): 100
[7]; 0.25 g ai/ha
  Phytotox value on a scale from 0-100 (100 is 100% damage): 0
[7]; 0.98 g ai/ha
  Phytotox value on a scale from 0-100 (100 is 100% damage): 33
[7]; 3.91 g ai/ha
  Phytotox value on a scale from 0-100 (100 is 100% damage): 63
[7]; 15.63 g ai/ha
  Phytotox value on a scale from 0-100 (100 is 100% damage): 98
[8]
  Relative tolerance rate (non-transgenic = 1.0): 1
[9]
  Relative tolerance rate (non-transgenic = 1.0): 1
[10]
  Relative tolerance rate (non-transgenic = 1.0): 17
[11]
  Relative tolerance rate (non-transgenic = 1.0): 1
[12]
  Relative tolerance rate (non-transgenic = 1.0): 3
